Assay results taken from US3939263A, “Methods of combatting insects and acarina using oxygenated derivatives of S-(tert-bulythio)methyl O,O-diethyl phosphorodithioate and phosphorothioate” (priority 1974, dated 1976).

Tests used:
Southern Armyworm [1] = assay: Southern Armyworm, dipped lima bean leaf; assay type: in vivo, Spodoptera eridania (Cramer); conditions: Spodoptera eridania, 48 h, 2 days, read-out: % Kill, Southern Armyworm
Procedure: Southern Armyworm -- Spodoptera eridania (Cramer)
A Sieva lima bean plant with just the primary leaves expanded to 3 to 4 inches is dipped for 3 seconds with agitation in a 35/65% water/acetone mixture containing 1000 ppm. of test compound and set in the hood to dry. Following this, one leaf is placed in a 4-inch petri dish which has a moist filter paper in the bottom and ten third-instar armyworm larvae about three-eighths inch long. The dish is covered and held at 80°F., and 50% r.h. After 2 days, mortality counts and estimates of the amount of feeding are made. Compounds showing partial kill and/or inhibition of feeding are held for an extra day for further observations.

[2] = test system: Western Potato Leafhopper; assay: Western Potato Leafhopper, dipped lima bean leaf; assay type: in vivo, Empoasca abrupta Say; conditions: 48 h, 2 days, read-out: % Kill, Western Potato Leafhopper
Description: Western Potato Leafhopper -- Empoasca abrupta Say
A Sieva lima bean plant with the primary leaf expanded to 3 to 4 inches is dipped into a 35/65% water/acetone mixture containing 100 ppm. of test compound and set in the hood to dry. A 1-inch piece of the tip of one leaf is cut off and placed in a 4-inch petri dish with a moist filter paper in the bottom. From three to 10 second-instar nymphs are tapped from the culture plants into the test dish and rapidly covered. Mortality counts are made after 2 days at 80°F., and 50% r.h.

Two-Spotted Spider Mite = assay: Two-Spotted Spider Mite, dipped infested lima bean plants; assay type: in vivo, Tetranychus urticae (Koch); conditions: Tetranychus urticae, read-out: % Kill, Two-Spotted Spider Mite
Procedure: Two-Spotted Spider Mite -- Tetranychus urticae (Koch)
Sieva lima bean plants, with primary leaves 3 to 4 inches long, are infested with about 100 adult mites per leaf 4 hours before use in this test, in order to allow egg-laying before treatment. The infested plants are dipped for 3 seconds with agitation into a 35/65% water/acetone mixture containing 1000 ppm. of test compound and the plants set in the hood to dry. After 2 days at 80°F., and 50% r.h., the adult mite mortality is estimated on one leaf under a 10X stereoscopic microscope. The other leaf is left on the plant an additional 5 days and then examined at 10X power to estimate the kill of eggs and of newly hatched nymphs, giving a measure of ovicidal and residual action, respectively.

[3] = test system: Boophilus microplus ticks; assay: Tick larvae, simulated spray in pipette; assay type: in vivo; conditions: Rhipicephalus microplus, 48 hours, read-out: % Kill, Ticks
Procedure: Ticks -- Boophilus microplus
In these tests, 20 larvae are enclosed in a pipette sealed at one end with a gauze material. A 10% acetone/water solution with the drug in it is then sucked through the pipette with a vacuum hose, thus simulating a spray system. The ticks are then held for 48 hours and mortality is determined.

Cotton Boll Weevil [4] = assay: Cotton Boll Weevil, treated cotton cotyledon, 2-day mortality; assay type: in vivo, Anthonomus grandis Boheman; conditions: 48 h, 2 days, read-out: % Kill, Cotton Boll Weevil
Procedure: Cotton Boll Weevil -- Anthonomus grandis Boheman
A cotton plant with cotyledons expanded is dipped for 3 seconds with agitation in 35/65% aqueous acetone mixture containing 100 ppm. of test compound and set in the hood to dry. One cotyledon is removed from the plant and placed in a 4-inch petri dish containing a moist filter paper on the bottom and 10 adult weevils. After 2 days at 80°F., and 50% r.h., mortality counts are made, prodding each insect to distinguish dead ones from those "playing dead."

Southern Corn Rootworm = assay: Soil Insecticide test, Southern Corn Rootworm; assay type: in vivo, Diabrotica undecimpunctata howardi Barber; conditions: 144 h, 6 days, read-out: % Kill, Soil Insecticide, Southern Corn Rootworm; for mortality at 1 ppm: 1 ppm in soil; for mortality at 10 ppm: 10 ppm in soil; for mortality at 100 ppm: 100 ppm in soil
Procedure: Southern Corn Rootworm -- Diabrotica undecimpunctata howardi Barber
[…] Twelve and one-half milliliters of Littleton silt loam soil and 1 milliliter of millet seed (food for larvae) are added, the jars capped and the contents thoroughly mixed about 2 minutes on a rotary tumbler. Each jar then receives 5 ml. of tap water and ten southern corn rootworm larvae (Diabrotica undecimpunctata howardi Barber) 6 to 8 days old. The jars are loosely capped and placed in the holding room at 26.7°C. and 60% r.h. with constant light. Mortality counts are made after 6 days. Corrected percent mortality data is recorded on standard forms.

Cotton Boll Weevil [5] = assay: Soil Systemic Insecticide test on cotton, Cotton Boll Weevil; assay type: in vivo, Anthonomus grandis Boheman; conditions: 48 h; 100 ppm in soil; cotton leaves after three weeks; 2 days; read-out: % Kill, Systemic Insecticide, Cotton Boll Weevil
Procedure: (§1) Soil Systemic Insecticide Tests
(§2) Corn and cotton seed (three seeds each) are planted in treated soil (containing about 100 ppm. of the compound). Thirty milliliters of treated soil are placed in a peat container 5 × 5 × 5.5 cm., and three seeds each of corn and cotton planted. The containers are filled with an additional 30 ml. of treated soil. The treatments are removed to the greenhouse maintained about 26°C. without supplementary light. Water is supplied as needed. After three weeks, foliage of the corn is clipped and placed in glass petri dishes (90 mm. × 10 mm.) with moist filter (9 cm. Whatman No. 1) paper and ten third-instar southern armyworm (Spodoptera eridania Cramer) larvae about 8 mm. long. The dishes are covered and placed in the holding room with constant light at 26.7°C. and 60% r.h. for 2 days, when mortality counts are made.
The cotyledonary leaves of the cotton are clipped after three weeks and placed in glass petri dishes (90 mm. × 10 mm.) with moist filter (9 cm. Whatman No. 1) paper and ten adult boll weevils (Anthonomus grandis Boheman). The dishes are covered, placed in the holding room with constant light at 26.7°C. and 60% r.h. for 2 days, when mortality counts are made.

Bean Aphid = assay: Bean Aphid, sprayed nasturtium plants; assay type: in vivo, Aphis fabae Scopoli; conditions: Aphis fabae, 24 h, one day, read-out: % Kill, Bean Aphid
Procedure: Bean Aphid -- Aphis fabae Scopoli
Two-inch fiber pots, each containing a nasturtium plant 2 inches high and infested with 100 to 150 aphids 2 days earlier are placed on a 4 […] an Atomizer at 20 psi. air pressure. The spray tip is held about 6 inches from the plants and the spray directed so as to give complete coverage of the aphids and the plants. The sprayed plants are laid on their sides on white enamel trays. Mortality estimates are made after one day at 70°F., 50% r.h.

Southern Armyworm [6] = assay: Soil Systemic Insecticide test on corn, Southern Armyworm; assay type: in vivo, Spodoptera eridania Cramer; conditions: Spodoptera eridania, 48 h; 100 ppm in soil; corn foliage after three weeks; 2 days; read-out: % Kill, Systemic Insecticide, Southern Armyworm
Procedure: as §1, §2

SMILES	mortality at 100 ppm (Southern Armyworm [1]) [%]	mortality at 1000 ppm (Southern Armyworm [1]) [%]	mortality at 10 ppm [2] [%]	mortality at 100 ppm [2] [%]	mortality at 100 ppm (Two-Spotted Spider Mite) [%]	mortality at 1000 ppm (Two-Spotted Spider Mite) [%]	mortality at 100 ppm ([3]; 100 ppm) [%]	mortality at 100 ppm (Cotton Boll Weevil [4]) [%]	mortality at 1 ppm (Southern Corn Rootworm) [%]	mortality at 10 ppm (Southern Corn Rootworm) [%]	mortality at 100 ppm (Southern Corn Rootworm) [%]	mortality at 100 ppm (Cotton Boll Weevil [5]) [%]	mortality at 1 ppm (Bean Aphid) [%]	mortality at 10 ppm (Bean Aphid) [%]	mortality at 100 ppm (Bean Aphid) [%]	mortality at 100 ppm (Southern Armyworm [6]) [%]	mortality at 33 ppm [3] [%]
CCOP(=O)(OCC)SC[S+]([O-])C(C)(C)C (stereo not drawn) [O,O-diethyl S-(tert-butylsulfinyl)methyl Phosphorothioate]	100	100	100	100	100	100	100	90	61	100	100	100	100	100	100	100	
CCOP(=S)(OCC)SC[S+]([O-])C(C)(C)C (stereo not drawn) [O,O-diethyl S-(tert-butylsulfinyl)methyl phosphorodithioate, reference compound]	70	100	100	100	100	100		100	95	100	100	100	100	100	100	100	0
CCOP(=S)(OCC)SCS(=O)(=O)C(C)(C)C [O,O-diethyl S-(tert-butylsulfonyl)methyl Phosphorodithioate]	100	100			100	100		90	100	100	100	90	100	100	100	0	
CCOP(=O)(OCC)SCS(=O)(=O)C(C)(C)C [O,O-diethyl S-(tert-butylsulfonyl)methyl Phosphorothioate]	100	100	100	100	100	100		90	0	100	100	100	100	100	100	100	0
